{"source": "patent US10376598B2", "about": "“Targeted therapeutics” (Madrigal Pharmaceuticals, Inc., priority 2013, dated 2019)", "key": {"HER2 [1]": {"system": "HER2", "experiment": "HER2 degradation in BT-474 cells (Method 1, Western blot)", "type": "cell-based, human", "settings": "0.5 μM, overnight", "method": "[…]. The resulting supernatant used as the cytosol fractions is dissolved with sample buffer for SDS-PAGE and run on a SDS-PAGE gel, blotted onto a nitrocellulose membrane by using semi-dry transfer. Non-specific binding to nitrocellulose is blocked with 5% skim milk in TBS with 0.5% Tween at room temperature for 1 hour, then probed with anti-HER2/ErB2 mAb (rabbit IgG, #2242, Cell Signaling) and anti-Tubulin (T9026, Sigma) as housekeeping control protein. HRP-conjugated goat anti-rabbit IgG (H+L) and HRP-conjugated horse anti-mouse IgG (H+L) are used as secondary Ab (#7074, #7076, Cell Signaling) and LumiGLO reagent, 20× Peroxide (#7003, Cell Signaling) is used for visualization. The Hsp90 client protein HER2 is degraded when cells are treated with Hsp90-targeting moieties or SDC-TRAPs of the invention."}, "phospho-MK2": {"system": "phospho-MK2", "settings": "cited from earlier work"}, "β isoform of p38 MAPK": {"biological_target": "β isoform of p38 MAPK (Homo sapiens, UniProt Q15759)", "sequence (Q15759 whole entry, canonical isoform)": "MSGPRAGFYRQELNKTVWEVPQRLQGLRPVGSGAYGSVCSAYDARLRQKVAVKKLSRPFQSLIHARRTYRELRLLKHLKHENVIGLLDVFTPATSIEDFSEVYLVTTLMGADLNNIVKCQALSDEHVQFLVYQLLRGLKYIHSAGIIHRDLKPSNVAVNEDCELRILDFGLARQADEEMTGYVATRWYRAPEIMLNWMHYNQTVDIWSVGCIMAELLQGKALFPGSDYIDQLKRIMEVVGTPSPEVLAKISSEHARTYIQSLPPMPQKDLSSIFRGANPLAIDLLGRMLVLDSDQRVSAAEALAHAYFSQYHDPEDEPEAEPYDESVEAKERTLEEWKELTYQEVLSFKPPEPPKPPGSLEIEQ", "settings": "in vitro; cited from earlier work"}, "[2]": {"system": "phosphorylation of MK2 (Thr334)", "settings": "TNFα-stimulated HeLa cells; cited from earlier work"}, "p38α MAPK": {"biological_target": "p38α MAPK (Homo sapiens, UniProt Q16539)", "sequence (Q16539 whole entry)": "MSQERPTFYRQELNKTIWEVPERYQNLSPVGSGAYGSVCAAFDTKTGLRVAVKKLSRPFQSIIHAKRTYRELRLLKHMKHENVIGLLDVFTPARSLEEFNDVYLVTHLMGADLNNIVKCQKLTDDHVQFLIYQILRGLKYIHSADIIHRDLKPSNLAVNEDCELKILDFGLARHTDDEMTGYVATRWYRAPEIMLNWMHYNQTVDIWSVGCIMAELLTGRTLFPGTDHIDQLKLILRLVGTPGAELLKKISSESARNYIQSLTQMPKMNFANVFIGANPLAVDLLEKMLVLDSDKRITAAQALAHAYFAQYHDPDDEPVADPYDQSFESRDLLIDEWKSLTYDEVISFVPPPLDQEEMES", "settings": "cited from earlier work"}, "[3]": {"system": "phosphorylation of MK2 (Thr334)", "settings": "anisomycin-induced mouse RAW264.7 macrophages; cited from earlier work"}, "TNFα secretion": {"system": "TNFα secretion", "settings": "LPS/IFNγ-stimulated macrophages; cited from earlier work"}, "[4]": {"system": "SW1990 human pancreas orthotopic tumor", "settings": "in vivo; cited from earlier work"}, "SW1990": {"system": "SW1990", "settings": "read-out: IC50 cell proliferation; cited from earlier work"}, "wild-type JAK2 [5]": {"biological_target": "T1, wild-type JAK2 (Homo sapiens, UniProt O60674)", "T1 sequence (O60674 whole entry, species assumed)": "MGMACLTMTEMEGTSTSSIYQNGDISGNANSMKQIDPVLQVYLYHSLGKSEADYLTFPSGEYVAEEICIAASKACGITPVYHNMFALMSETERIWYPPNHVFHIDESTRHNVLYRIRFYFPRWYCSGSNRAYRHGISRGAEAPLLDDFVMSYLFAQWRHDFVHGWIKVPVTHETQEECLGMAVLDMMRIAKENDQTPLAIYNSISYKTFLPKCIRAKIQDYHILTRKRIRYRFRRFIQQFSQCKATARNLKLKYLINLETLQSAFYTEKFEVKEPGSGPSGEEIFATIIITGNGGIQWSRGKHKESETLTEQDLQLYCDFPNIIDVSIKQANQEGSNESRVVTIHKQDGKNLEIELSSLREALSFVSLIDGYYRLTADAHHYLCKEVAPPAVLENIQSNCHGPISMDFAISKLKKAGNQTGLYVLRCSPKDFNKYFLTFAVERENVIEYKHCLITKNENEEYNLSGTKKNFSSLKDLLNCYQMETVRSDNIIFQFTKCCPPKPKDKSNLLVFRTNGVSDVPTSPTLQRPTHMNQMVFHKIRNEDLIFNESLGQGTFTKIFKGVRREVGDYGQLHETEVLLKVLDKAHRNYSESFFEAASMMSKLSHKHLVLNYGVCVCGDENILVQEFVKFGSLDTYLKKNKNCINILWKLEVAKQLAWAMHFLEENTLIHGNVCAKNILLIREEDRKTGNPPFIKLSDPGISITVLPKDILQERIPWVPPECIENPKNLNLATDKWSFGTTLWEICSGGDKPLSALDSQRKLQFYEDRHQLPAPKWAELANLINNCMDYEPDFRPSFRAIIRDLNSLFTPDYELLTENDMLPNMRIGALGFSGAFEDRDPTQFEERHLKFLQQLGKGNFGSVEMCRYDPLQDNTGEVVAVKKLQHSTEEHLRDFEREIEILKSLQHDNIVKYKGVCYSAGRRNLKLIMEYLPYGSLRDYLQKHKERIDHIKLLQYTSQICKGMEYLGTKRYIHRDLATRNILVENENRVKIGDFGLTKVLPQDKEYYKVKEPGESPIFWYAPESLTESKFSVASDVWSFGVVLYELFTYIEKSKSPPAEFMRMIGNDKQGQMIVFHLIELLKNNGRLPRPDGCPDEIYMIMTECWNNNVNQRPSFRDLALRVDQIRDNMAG", "settings": "read-out: IC50 interleukin-3-stimulated wild-type JAK2-mediated cell proliferation; cited from earlier work"}, "[6]": {"system": "Ba/F3-JAK2V617F-GFP tumor burden", "settings": "cited from earlier work"}, "wild-type JAK2 [7]": {"biological_target": "T1, wild-type JAK2", "settings": "read-out: IC50 interleukin-3-stimulated wild-type JAK2-mediated signaling; cited from earlier work"}, "JAK2V617F": {"biological_target": "T2, JAK2V617F (Homo sapiens, UniProt O60674, V617F)", "T2 construct": "host or cells: Ba/F3", "T2 sequence (O60674 whole entry V617F)": "as the sequence (O60674 whole entry, species assumed) above, with V617F counted along it", "settings": "Ba/F3 cells; read-out: IC50 JAK2V617F-driven signaling; cited from earlier work"}, "[8]": {"system": "Ba/F3-JAK2V617F-GFP ascitic tumor cells", "settings": "cited from earlier work"}, "[9]": {"settings": "in vivo; cited from earlier work"}, "[10]": {"system": "FGF-over VEGF-mediated target signaling", "settings": "in mice; cited from earlier work"}, "[11]": {"experiment": "Tissue distribution of ganetespib in female CD-1 nu/nu mice bearing RERF human NSCLC xenografts", "type": "in vivo", "from_the_text": "Tissue Distribution of Ganetespib in Female CD-1 Nu/Nu Mice Bearing RERF Human NSCLC Xenografts\nTo confirm the distribution of ganetespib in blood, livers, kidneys, brains, hearts, lungs and tumors after IV administration of ganetespib to female CD-1 nu/nu mice bearing RERF human NSCLC xenografts, and to examine metabolic profiles of ganetespib in plasma, red blood cells, and above tissues.\nAnimals: female CD-1 nu/nu mice bearing RERF human NSCLC xenografts (N=3/group)\nFormulation: 10% DMSO, 18% Cremophor RH40, 3.6% dextrose solution (DRD)\nBleeding time points: 5 min, 6, 24 hr\nCollected tissues: blood (plasma and red blood cells (RBC)), liver, kidneys, brain, heart, lung, tumor\nProtein precipitation: 50 μL of 10 times diluted plasma or RBC+150 μL ACN (10 mM NH4OAc), vortexed and centrifuged at 10000 rpm for 8 min; 150 μL supernatant+150 μL water (10 mM NH4OAc)\nProtein precipitation: 100 μL homogenized tissue (1:3 tissue: PBS buffer)+100 μL ACN (10 mM NH4OAc), vortexed and centrifuged at 10000 rpm for 8 min\nColumn: Agilent Zorbax Eclipse XDB-C18, 4.6×150 mm, 5 μm\nMobile phase: A: water containing 10 mM NH4OAc; B: 95% ACN containing 10 mM NH4OAc\nGradient: 95/5 A/B to 5/95 A/B in 10 min, total run time 15 min\nColumn: Phenomenex Synergi, 2.1×50 mm, 4 μm\nMobile phase: A: water containing 0.1% HCOOH; B: ACN containing 0.1% HCOOH\nGradient: 60/40 A/B to 5/95 A/B in 0.5 min, total run time 4 min"}, "HER2 [12]": {"system": "HER2", "experiment": "in vitro HER2 assays", "type": "cell-based", "from_the_text": "This example illustrates how a HER2 degradation assay may be used as a test to determine and select Hsp90-targeting moieties suitable for use in SDC-TRAPs of the invention, and further illustrates the ability of SDC-TRAPs to target cells preferentially expressing Hsp90. Such a test may further be used to determine the Hsp90 binding ability of SDC-TRAPs of the invention, as well as through competitive binding assays and cell-based Hsp90 client protein degradation assays known in the art.\nBT-474 cells are plated in the interior 60 wells of a 96 well black clear bottom plate (20,000 cells/well) in DMEM medium, with DMEM media in the surrounding 36 wells, and incubated at 37° C. with 5% CO2 overnight. On the second day, concentration response curve source plates are produced (10 point, 3-fold dilution of compounds in DMSO) followed by a 1:30 dilution in an intermediate dilution plate containing DMEM. Compound is transferred from the intermediate plate to the cell plate at a dilution of 1:10. The cells are then incubated at 37° C. with 5% CO2 for 24 hours.\nCells are then fixed in 4% phosphate-buffered paraformaldehyde for 30 minutes at room temperature and then permeabilized by washing five times with 0.1% Triton X-100 in PBS for 5 minutes at room temperature on a shaker. […] The raw data is normalized to DRAQS and the HER2 EC50 is calculated using XLfit™. […]"}}, "note": "Read-outs that look alike come from different tables or passages of the source.", "data": [{"smiles": "C=CCNC1=C2C[C@@H](C)C[C@H](OC)[C@H](O)[C@@H](C)/C=C(\\C)[C@H](OC(N)=O)[C@@H](OC)/C=C\\C=C(/C)C(=O)NC(=CC1=O)C2=O", "note": "[17-AAG]", "values": [{"measurement": "degradation of HER2", "setting": "HER2 [1]", "value": "partial degradation of HER2"}]}, {"smiles": "CC(C)(C)Cn1c(N)nc2ccc(-c3[nH]c(C(C)(C)C)nc3-c3ccc(F)cc3)nc21", "note": "[LY2228820, 5-[2-tert-Butyl-4-(4-fluorophenyl)-1H-imidazol-5-yl]-3-(2,2-dimethylpropyl)-3H-imidazo[4,5-b]pyridin-2-amine dimethanesulfonate]", "values": [{"measurement": "TMED70 phospho-MK2 inhibition in tumors", "setting": "phospho-MK2; mice transplanted with B16-F10 melanomas", "value": 19.4, "unit": "mg/kg"}, {"measurement": "duration of significant target inhibition", "setting": "phospho-MK2; single 10 mg/kg oral dose", "value": "4 to 8", "unit": "h"}, {"measurement": "inhibition of phospho-MK2", "setting": "phospho-MK2; single 10 mg/kg oral dose", "value": "> 40", "unit": "%"}, {"measurement": "IC50", "setting": "β isoform of p38 MAPK", "value": 3.2, "unit": "nM"}, {"measurement": "IC50", "setting": "[2]", "value": 8.1, "unit": "nM"}, {"measurement": "IC50", "setting": "p38α MAPK; in vitro, read-out: IC50 α isoform of p38 MAPK", "value": 5.3, "unit": "nM"}, {"measurement": "selectivity for p38α MAPK versus 179 other kinases tested", "setting": "p38α MAPK; including p38δ and γ isoforms", "value": "> 1000", "unit": "fold"}, {"measurement": "IC50", "setting": "[3]", "value": 35.3, "unit": "nM"}, {"measurement": "IC50", "setting": "TNFα secretion", "value": 6.3, "unit": "nM"}]}, {"smiles": "COc1cccc(OCCCN)c1-c1cc(Nc2cnc(C#N)cn2)n[nH]1", "note": "[LY2606368, 5-((5-(2-(3-aminopropoxy)-6-methoxyphenyl)-1H-pyrazol-3-yl)amino)pyrazine-2-carbonitrile]", "values": [{"measurement": "inhibition of metastasis to lymph node, spleen, and intestine", "setting": "[4]", "value": 100, "unit": "%"}, {"measurement": "inhibition of primary tumor growth", "setting": "[4]", "value": "over 92%"}, {"measurement": "IC50", "setting": "SW1990", "value": 1.5, "unit": "nM"}]}, {"smiles": "Cc1cc(Nc2cc(CN3CCOCC3)c3nc(C)c(Cc4ccc(Cl)cc4F)n3n2)n[nH]1", "note": "[LY2784544, 3-(4-Chloro-2-fluorobenzyl)-2-methyl-N-(5-methyl-1H-pyrazol-3-yl)-8-(morpholin-4-ylmethyl)imidazo[1,2-b]pyridazin-6-amine]", "values": [{"measurement": "IC50", "setting": "wild-type JAK2 [5]", "value": 1310, "unit": "nM"}, {"measurement": "effect on erythroid progenitors, reticulocytes or platelets", "setting": "[6]; in vivo", "value": "no effect"}, {"measurement": "TED50 reduction of Ba/F3-JAK2V617F-GFP tumor burden", "setting": "[6]; twice daily", "value": 13.7, "unit": "mg/kg"}, {"measurement": "IC50", "setting": "wild-type JAK2 [7]", "value": 1180, "unit": "nM"}, {"measurement": "IC50", "setting": "JAK2V617F", "value": 20, "unit": "nM"}, {"measurement": "TED50 inhibition of STATS phosphorylation", "setting": "[8]", "value": 12.7, "unit": "mg/kg"}]}, {"smiles": "CCN1CCN(Cc2ccc(Nc3ncc(F)c(-c4cc(F)c5nc(C)n(C(C)C)c5c4)n3)nc2)CC1.CS(=O)(=O)O", "note": "[LY2835219, 2-Pyrimidinamine, N-[5-[(4-ethyl-1-piperazinyl)methyl]-2-pyridinyl]-5-fluoro-4-[4-fluoro-2-methyl-1-(1-methylethyl)-1H-benzimidazol-6-yl]-, methanesulfonate (1:1)]", "values": [{"measurement": "percent of dose in brain", "setting": "[9]", "value": "0.5-3.9%"}]}, {"smiles": "C[C@@H](Oc1ccc2[nH]nc(/C=C/c3cnn(CCO)c3)c2c1)c1c(Cl)cncc1Cl", "note": "[LY2874455, (R)-(E)-2-(4-(2-(5-(1-(3,5-Dichloropyridin-4-yl)ethoxy)-1H-indazol-3-yl)vinyl)-1H-pyrazol-1-yl) ethanol]", "values": [{"measurement": "in vitro and in vivo selectivity on inhibition of FGF-over VEGF-mediated target signaling", "setting": "[10]", "value": "6- to 9 fold"}]}, {"smiles": "CC(C)c1cc(-c2nnc(O)n2-c2ccc3c(ccn3C)c2)c(O)cc1O", "note": "[ganetespib]", "values": [{"measurement": "concentration of ganetespib in tumor", "setting": "[11]; 5 min after 50 mg/kg IV", "value": 2350, "unit": "nM"}, {"measurement": "mean concentration in plasma relative to RBC", "setting": "[11]; 5 min time point", "value": "about 10 times"}, {"measurement": "Concentration of ganetespib in plasma", "setting": "[11]; 24 hr after 50 mg/kg IV", "value": ">LLOQ"}, {"measurement": "IC50", "setting": "HER2 [12]", "value": "~30", "unit": "nM"}]}]}
